Measured values: patent publication US20050250715A1, “Remedy” (priority 2002, published 2005)

Tested on: NGF
Test: Enhancing activity for NGF production in L-M cells (NGF in culture medium by enzyme immunoassay)
Type: cell-based, murine
Details: 20 hours; for Amount of NGF Production (%): control = 100%
Description: (2) The enhancing activity for NGF production of the compound a was assayed. L-M cells (ATCC CCL-1.2) from murine fibroblasts were suspended in an M199 medium (manufactured by Bio Whittaker) containing 0.5% bactopeptone (manufactured by Gibco) so as to have a concentration of 1.5×10^5 cells/mL. The suspension was put in a 96 well plate in an amount of 0.1 mL each well, and the cells were aseptically cultured. After culturing the cells for 3 days, the medium was removed therefrom, and exchanged with an M199 medium containing 0.5% bovine serum albumin (manufactured by Sigma). The compound a was added thereto, and the cells were cultured for 20 hours. After the termination of the culture, the concentration of NGF in the culture medium was assayed by an enzyme immunoassay method (NGF Emax Immuno Assay System, manufactured by Promega). The experiment was carried out twice, and an average value was taken. […] The amount of NGF production of the control was 0.739 ng/mL. As to the control, the concentration in the culture medium was determined in the same manner except that the compound a was not added. It is the same as that of the following examples.

Row | Structure (SMILES) | enhancing activity for NGF production (result in words) | Amount of NGF Production (%) (Concentration of Sample 1.0 mM) | Amount of NGF Production (%) (Concentration of Sample 2 mM) | Amount of NGF Production (%) (Concentration of Sample 0.5 mM) | Amount of NGF Production (%) (Table 3: Concentration of Sample 25 mM) | Amount of NGF Production (%) (Table 3: Concentration of Sample 50 mM)
1 | CC1(C)C[C@@H](O)[C@]2(C)CC[C@]3(C)C(=CC[C@@H]4[C@@]5(C)CC[C@H](O[C@@H]6O[C@H](C(=O)O)[C@@H](O)[C@H](O)[C@H]6O[C@@H]6O[C@H](CO)[C@H](O)[C@H](O)[C@H]6O[C@@H]6O[C@H](CO)[C@@H](O)[C@H](O)[C@H]6O)[C@@](C)(CO)[C@@H]5CC[C@]43C)[C@@H]2C1 [Compound i, 3-O-[β-D-glucopyranosyl(1→2)-β-D-galactopyranosyl-(1→2)-β-D-glucuronopyranosyl]-soyasapogenol B] | has enhancing activity for NGF production | 116.8 | 169.4 |  |  | 
2 | CC(=O)OC1C(O)COC(OC2C(O)COC(OC3C(O)C(C)(C)CC4C5=CCC6C7(C)CCC(OC8OC(C(=O)O)C(O)C(O)C8OC8OC(CO)C(O)C(O)C8OC8OC(CO)C(O)C(O)C8O)C(C)(CO)C7CCC6(C)C5(C)CCC43C)C2O)C1OC(C)=O [Compound d, 3-O-[β-D-glucopyranosyl(1→2)-β-D-galactopyranosyl-(1→2)-β-D-glucuronopyranosyl]-22-O-[2,3-di-O-acetyl-β-D-xylopyranosyl(1→3)-α-L-arabinopyranosyl]soyasapogenol A] | has an enhancing activity for NGF production | 281.1 | 276.5 | 255.8 |  | 
3 | CC(=O)OC1COC(OC2C(O)COC(OC3C(O)C(C)(C)CC4C5=CCC6C7(C)CCC(OC8OC(C(=O)O)C(O)C(O)C8OC8OC(CO)C(O)C(O)C8OC8OC(CO)C(O)C(O)C8O)C(C)(CO)C7CCC6(C)C5(C)CCC43C)C2O)C(O)C1O [Compound c, 3-O-[β-D-glucopyranosyl(1→2)-β-D-galactopyranosyl-(1→2)-β-D-glucuronopyranosyl]-22-O-[4-O-acetyl-β-D-xylopyranosyl(1→3)-α-L-arabinopyranosyl]soyasapogenol A] | has an enhancing activity for NGF production | 289.2 | 323.7 | 255.1 |  | 
4 | CC(=O)OC1C(OC2C(O)COC(OC3C(O)C(C)(C)CC4C5=CCC6C7(C)CCC(OC8OC(C(=O)O)C(O)C(O)C8OC8OC(CO)C(O)C(O)C8OC8OC(CO)C(O)C(O)C8O)C(C)(CO)C7CCC6(C)C5(C)CCC43C)C2O)OCC(O)C1O [Compound a, 3-O-[β-D-glucopyranosyl(1→2)-β-D-galactopyranosyl-(1→2)-β-D-glucuronopyranosyl]-22-O-[2-O-acetyl-β-D-xylopyranosyl(1→3)-α-L-arabinopyranosyl]soyasapogenol A] | has an enhancing activity for NGF production | 231.6 | 212.6 | 228.3 |  | 
5 | CC(=O)OCC1OC(OC2C(O)COC(OC3C(O)C(C)(C)CC4C5=CCC6C7(C)CCC(OC8OC(C(=O)O)C(O)C(O)C8OC8OC(CO)C(O)C(O)C8OC8OC(CO)C(O)C(O)C8O)C(C)(CO)C7CCC6(C)C5(C)CCC43C)C2O)C(O)C(OC(C)=O)C1OC(C)=O [Compound g, 3-O-[β-D-glucopyranosyl(1→2)-β-D-galactopyranosyl-(1→2)-β-D-glucuronopyranosyl]-22-O-[3,4,6-tri-O-acetyl-β-D-glucopyranosyl(1→3)-α-L-arabinopyranosyl]soyasapogenol A] | has an enhancing activity for NGF production | 277.2 | 247.6 | 295.4 |  | 
6 | CC(=O)OC1COC(OC2C(O)COC(OC3C(O)C(C)(C)CC4C5=CCC6C7(C)CCC(OC8OC(C(=O)O)C(O)C(O)C8OC8OC(CO)C(O)C(O)C8OC8OC(CO)C(O)C(O)C8O)C(C)(CO)C7CCC6(C)C5(C)CCC43C)C2O)C(OC(C)=O)C1O [Compound e, 3-O-[β-D-glucopyranosyl(1→2)-β-D-galactopyranosyl-(1→2)-β-D-glucuronopyranosyl]-22-O-[2,4-di-O-acetyl-β-D-xylopyranosyl(1→3)-α-L-arabinopyranosyl]soyasapogenol A] | has an enhancing activity for NGF production | 233.7 | 230.1 | 214.0 |  | 
7 | CC(=O)OCC1OC(OC2C(O)COC(OC3C(O)C(C)(C)CC4C5=CCC6C7(C)CCC(OC8OC(C(=O)O)C(O)C(O)C8OC8OC(CO)C(O)C(O)C8OC8OC(CO)C(O)C(O)C8O)C(C)(CO)C7CCC6(C)C5(C)CCC43C)C2O)C(OC(C)=O)C(OC(C)=O)C1OC(C)=O [Compound h, 3-O-[β-D-glucopyranosyl(1→2)-β-D-galactopyranosyl-(1→2)-β-D-glucuronopyranosyl]-22-O-[2,3,4,6-tetra-O-acetyl-β-D-glucopyranosyl(1→3)-α-L-arabinopyranosyl]soyasapogenol A] | has enhancing activity for NGF production | 301.7 | 307.2 | 273.3 |  | 
8 | CC(=O)OC1COC(OC2C(O)COC(OC3C(O)C(C)(C)CC4C5=CCC6C7(C)CCC(OC8OC(C(=O)O)C(O)C(O)C8OC8OC(CO)C(O)C(O)C8OC8OC(CO)C(O)C(O)C8O)C(C)(CO)C7CCC6(C)C5(C)CCC43C)C2O)C(OC(C)=O)C1OC(C)=O [Compound m, 3-O-[β-D-glucopyranosyl(1→2)-β-D-galactopyranosyl-(1→2)-β-D-glucuronopyranosyl]-22-O-[2,3,4-tri-O-acetyl-β-D-xylopyranosyl(1→3)-α-L-arabinopyranosyl]soyasapogenol A] | has enhancing activity for NGF production | 250.9 | 233.4 | 263.3 |  | 
9 | CC1(C)CC(=O)C2(C)CCC3(C)C(=CCC4C5(C)CCC(OC6OC(C(=O)O)C(O)C(O)C6OC6OC(CO)C(O)C(O)C6OC6OC(CO)C(O)C(O)C6O)C(C)(CO)C5CCC43C)C2C1 [Compound k, 3-O-[β-D-glucopyranosyl(1→2)-β-D-galactopyranosyl-(1→2)-β-D-glucuronopyranosyl]-soyasapogenol E] | has enhancing activity for NGF production | 115.9 | 456.3 |  |  | 
10 | CC1OC(OC2C(OC3C(OC4CCC5(C)C(CCC6(C)C5CC=C5C7CC(C)(C)CC(=O)C7(C)CCC56C)C4(C)CO)OC(C(=O)O)C(O)C3O)OC(CO)C(O)C2O)C(O)C(O)C1O [Compound l, 3-O-[α-L-rhamnopyranosyl(1→2)-β-D-galactopyranosyl-(1→2)-β-D-glucuronopyranosyl]-soyasapogenol E] | has enhancing activity for NGF production | 145.9 | 531.2 |  |  | 
11 | CC1(C)CC2=C3CC[C@@H]4[C@@]5(C)CCC(O)[C@](C)(CO)[C@@H]5CC[C@@]4(C)[C@]3(C)CC[C@@]2(C)C(O)C1 (stereo partly shown) [Compound n, 13(18)-oleanene-3,22,24-triol] | has enhancing activity for NGF production |  |  |  | 197.9 | 522.6
12 | C[C@@H]1O[C@@H](O[C@H]2[C@H](O[C@H]3[C@H](O[C@H]4CC[C@@]5(C)[C@@H](CC[C@]6(C)[C@@H]5CC=C5[C@@H]7CC(C)(C)C[C@@H](O)[C@]7(C)CC[C@]56C)[C@@]4(C)CO)O[C@H](C(=O)O)[C@@H](O)[C@@H]3O)O[C@H](CO)[C@H](O)[C@@H]2O)[C@H](O)[C@H](O)[C@H]1O [Compound j, 3-O-[α-L-rhamnopyranosyl(1→2)-β-D-galactopyranosyl-(1→2)-β-D-glucuronopyranosyl]-soyasapogenol B] | has enhancing activity for NGF production | 176.4 | 212.5 | 138.2 |  | 
13 | CC(=O)OC1COC(OC2C(O)COC(OC3C(O)C(C)(C)CC4C5=CCC6C7(C)CCC(OC8OC(C(=O)O)C(O)C(O)C8OC8OC(CO)C(O)C(O)C8OC8OC(CO)C(O)C(O)C8O)C(C)(CO)C7CCC6(C)C5(C)CCC43C)C2O)C(O)C1OC(C)=O [Compound f, 3-O-[β-D-glucopyranosyl(1→2)-β-D-galactopyranosyl-(1→2)-β-D-glucuronopyranosyl]-22-O-[3,4-di-O-acetyl-β-D-xylopyranosyl(1→3)-α-L-arabinopyranosyl]soyasapogenol A] | has an enhancing activity for NGF production | 208.8 | 218.5 | 204.5 |  | 
14 | CC(=O)OC1C(O)COC(OC2C(O)COC(OC3C(O)C(C)(C)CC4C5=CCC6C7(C)CCC(OC8OC(C(=O)O)C(O)C(O)C8OC8OC(CO)C(O)C(O)C8OC8OC(CO)C(O)C(O)C8O)C(C)(CO)C7CCC6(C)C5(C)CCC43C)C2O)C1O [Compound b, 3-O-[β-D-glucopyranosyl(1→2)-β-D-galactopyranosyl-(1→2)-β-D-glucuronopyranosyl]-22-O-[3-O-acetyl-β-D-xylopyranosyl(1→3)-α-L-arabinopyranosyl]soyasapogenol A] | has an enhancing activity for NGF production | 251.2 | 272.3 | 220.9 |  | 
